Test results published in patent publication US10689401B2, “C5-C6-oxacyclic fused iminothiazine dioxide compounds bearing an ether linker as BACE inhibitors, compositions, and their use” (Merck Sharp & Dohme Corp., priority 2016, dated 2020).

Key:
[1] = target: Recombinant human soluble BACE1 catalytic domain (Homo sapiens (Human), UniProt P56817); assay: BACE1 HTRF FRET Assay; assay type: biochemical; details: for Ki: Ki calculated from IC50 using the Cheng-Prusoff equation, QSY7-APPswe-Eu substrate, pH 5.0, read-out: BACE-1 Ki; for inhibition at 10 µM: read-out: BACE-1 inhibition (printed in BACE-1 Ki column)
Description: Reagents: Na^+-Acetate pH 5.0; 1% Brij-35; Glycerol; Dimethyl Sulfoxide (DMSO); Recombinant human soluble BACE1 catalytic domain (>95% pure); APP Swedish mutant peptide substrate (QSY7-APP^swe-Eu): QSY7-EISEVNLDAEFC-Europium-amide.
A homogeneous time-resolved FRET assay can be used to determine IC50 values for inhibitors of the soluble human BACE1 catalytic domain. This assay monitors the increase of 620 nm fluorescence that resulted from BACE1 cleavage of an APPswedish APP^swe mutant peptide FRET substrate (QSY7-EISEVNLDAEFC-Europium-amide). This substrate contains an N-terminal QSY7 moiety that serves as a quencher of the C-terminal Europium fluorophore (620 nm Em). In the absence of enzyme activity, 620 nm fluorescence is low in the assay and increased linearly over 3 hours in the presence of uninhibited BACE1 enzyme. Inhibition of BACE1 cleavage of the QSY7-APP^swe-Eu substrate by inhibitors is manifested as a suppression of 620 nm fluorescence.
Varying concentrations of inhibitors at 3× the final desired concentration in a volume of 10 ul are preincubated with purified human BACE1 catalytic domain (3 nM in 10 μl) for 30 minutes at 30° C. in reaction buffer containing 20 mM Na-Acetate pH 5.0, 10% glycerol, 0.1% Brij-35 and 7.5% DSMO. Reactions are initiated by addition of 10 μl of 600 nM QSY7-APP^swe-Eu substrate (200 nM final) to give a final reaction volume of 30 μl in a 384 well Nunc HTRF plate. The reactions are incubated at 30° C. for 1.5 hours. The 620 nm fluorescence is then read on a Rubystar HTRF plate reader (BMG Labtechnologies) using a 50 millisecond delay followed by a 400 millisecond acquisition time window. Inhibitor IC50 values are derived from non-linear regression analysis of concentration response curves. Ki values are then calculated from IC50 values using the Cheng-Prusoff equation using a previously determined […] of 8 μM for the QSY7-APP^swe-Eu substrate at BACE1.

[2] = target: purified human autoBACE-2 (Homo sapiens (Human), UniProt Q9Y5Z0); assay: BACE-2 Assay (BACE-HTRF assay); assay type: biochemical; details: Ki calculated from IC50 using the Cheng-Prusoff equation; QSY7-EISEVNLDAEFC-Eu-amide substrate, pH 5.0
Experimental: Inhibitor IC50s at purified human autoBACE-2 are determined in a time-resolved endpoint proteolysis assay that measures hydrolysis of the QSY7-EISEVNLDAEFC-Eu-amide FRET peptide substrate (BACE-HTRF assay). BACE-mediated hydrolysis of this peptide results in an increase in relative fluorescence (RFU) at 620 nm after excitation with 320 nm light. Inhibitor compounds, prepared at 3× the desired final concentration in 1×BACE assay buffer (20 mM sodium acetate pH 5.0, 10% glycerol, 0.1% Brij-35) supplemented with 7.5% DMSO are preincubated with an equal volume of autoBACE-2 enzyme diluted in 1×BACE assay buffer (final enzyme concentration 1 nM) in black 384-well NUNC plates for 30 minutes at 30° C. […] DMSO is present at 5% final concentration in the assay. Following laser excitation of sample wells at 320 nm, the fluorescence signal at 620 nm is collected for 400 ms following a 50 μs delay on a RUBYstar HTRF plate reader (BMG Labtechnologies). Raw RFU data is normalized to maximum (1.0 nM BACE/DMSO) and minimum (no enzyme/DMSO) RFU values. IC50s are determined by nonlinear regression analysis (sigmoidal dose response, variable slope) of percent inhibition data with minimum and maximum values set to 0 and 100 percent respectively. Similar IC50s are obtained when using raw RFU data. The Ki values are calculated from the IC50 using the Cheng-Prusoff equation.

Sequence of Recombinant human soluble BACE1 catalytic domain (P56817 75-416): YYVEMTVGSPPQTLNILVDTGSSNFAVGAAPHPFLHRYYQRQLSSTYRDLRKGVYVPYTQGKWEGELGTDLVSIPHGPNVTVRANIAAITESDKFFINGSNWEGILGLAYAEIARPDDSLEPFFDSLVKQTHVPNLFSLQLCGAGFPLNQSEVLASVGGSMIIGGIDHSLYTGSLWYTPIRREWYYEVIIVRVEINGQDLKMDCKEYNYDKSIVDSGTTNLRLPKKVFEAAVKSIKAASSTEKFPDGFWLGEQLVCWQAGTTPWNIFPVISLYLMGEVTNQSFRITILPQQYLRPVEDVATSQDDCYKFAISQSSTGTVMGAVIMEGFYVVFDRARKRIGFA
Sequence of purified human autoBACE-2 (Q9Y5Z0 63-518): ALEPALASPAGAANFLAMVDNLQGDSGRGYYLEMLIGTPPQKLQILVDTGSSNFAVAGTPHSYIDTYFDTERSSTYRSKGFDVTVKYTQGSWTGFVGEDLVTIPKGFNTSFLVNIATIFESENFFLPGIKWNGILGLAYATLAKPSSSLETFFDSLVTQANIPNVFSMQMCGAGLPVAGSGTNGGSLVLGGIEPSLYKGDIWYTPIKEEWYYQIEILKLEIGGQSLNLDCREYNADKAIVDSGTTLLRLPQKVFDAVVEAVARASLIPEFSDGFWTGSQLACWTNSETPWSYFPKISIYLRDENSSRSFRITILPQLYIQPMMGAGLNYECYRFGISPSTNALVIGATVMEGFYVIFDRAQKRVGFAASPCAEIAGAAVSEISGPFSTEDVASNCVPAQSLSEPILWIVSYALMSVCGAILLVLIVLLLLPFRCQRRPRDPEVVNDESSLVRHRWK

| SMILES | Ki [1] | Ki [2] | inhibition at 10 µM [1] |
| --- | --- | --- | --- |
| C[C@H]1C[C@@H]2[C@](c3ccccc3F)(CO1)NC(=N)C(C)(C)S2(=O)=O [Example 1, (4aS,7S,8aR)-4a-(2-fluorophenyl)-3-imino-2,2,7-trimethyloctahydropyrano[4,3-b][1,4]thiazine 1,1-dioxide] | 0.363 µM | 0.0725 µM | – |
| C[C@@H]1C[C@@H]2[C@](c3ccccc3F)(CO1)NC(=N)C(C)(C)S2(=O)=O [Example 2, (4aS,7R,8aR)-4a-(2-fluorophenyl)-3-imino-2,2,7-trimethyloctahydropyrano[4,3-b][1,4]thiazine 1,1-dioxide] | – | 6.26 µM | 50% |
| C[C@H]1C[C@@H]2[C@](c3cc(Br)ccc3F)(CO1)NC(=N)C(C)(C)S2(=O)=O [Example 3, (4aS,7S,8aR)-4a-(5-bromo-2-fluorophenyl)-3-imino-2,2,7 trimethyloctahydropyrano[4,3-b][1,4]thiazine 1,1-dioxide] | 1.21 µM | 0.399 µM | – |
| CC(C)COc1ccc(F)c([C@]23CO[C@@H](C)C[C@H]2S(=O)(=O)C(C)(C)C(=N)N3)c1 [Example 4, (4aS,7S,8aR)-4a-(2-fluoro-5-isobutoxyphenyl)-3-imino-2,2,7-trimethyloctahydropyrano[4,3-b][1,4]thiazine 1,1-dioxide] | 0.354 µM | 0.0316 µM | – |
| C[C@H]1C[C@@H]2[C@](c3cc(Oc4ncccc4F)ccc3F)(CO1)NC(=N)C(C)(C)S2(=O)=O [Example 5, (4aS,7S,8aR)-4a-(2-fluoro-5-((3-fluoropyridin-2-yl)oxy)phenyl)-3-imino-2,2,7-trimethyloctahydropyrano[4,3-b][1,4]thiazine 1,1-dioxide] | 0.0175 µM | 0.0049 µM | – |
| C[C@H]1C[C@@H]2[C@](c3cc(Oc4cc(C#N)ccn4)ccc3F)(CO1)NC(=N)C(C)(C)S2(=O)=O [Example 6, 2-(4-fluoro-3-((4aS,7S,8aR)-3-imino-2,2,7-trimethyl-1,1-dioxidooctahydropyrano[4,3-b][1,4]thiazin-4a-yl)phenoxy)isonicotinonitrile] | 0.0236 µM | 0.0192 µM | – |
| C[C@H]1C[C@@H]2[C@](c3cc(Oc4ncc(F)cc4F)ccc3F)(CO1)NC(=N)C(C)(C)S2(=O)=O [Example 7, (4aS,7S,8aR)-4a-(5-((3,5-difluoropyridin-2-yl)oxy)-2-fluorophenyl)-3-imino-2,2,7-trimethyloctahydropyrano[4,3-b][1,4]thiazine 1,1-dioxide] | 0.0536 µM | 0.0289 µM | – |
| C[C@@H]1C[C@@H]2[C@](c3cc(OCC4CC4)ccc3F)(CO1)NC(=N)C(C)(C)S2(=O)=O [Example 8, (4aS,7R,8aR)-4a-(5-(cyclopropylmethoxy)-2-fluorophenyl)-3-imino-2,2,7-trimethyloctahydropyrano[4,3-b][1,4]thiazine 1,1-dioxide] | 4.48 µM | 1.18 µM | – |
| C[C@H]1C[C@@H]2[C@](c3cc(OCC4CC4)ccc3F)(CO1)NC(=N)C(C)(C)S2(=O)=O [Example 9, (4aS,7S,8aR)-4a-(5-(cyclopropylmethoxy)-2-fluorophenyl)-3-imino-2,2,7-trimethyloctahydropyrano[4,3-b][1,4]thiazine 1,1-dioxide] | 0.0942 µM | 0.0114 µM | – |
| COc1ccc(F)c([C@]23CO[C@@H](C)C[C@H]2S(=O)(=O)C(C)(C)C(=N)N3)c1 [Example 10, (4aS,7S,8aR)-4a-(2-fluoro-5-methoxyphenyl)-3-imino-2,2,7-trimethyloctahydropyrano[4,3-b][1,4]thiazine 1,1-dioxide] | 0.681 µM | 0.249 µM | – |
| COc1ccc(F)c([C@]23CO[C@H](C)C[C@H]2S(=O)(=O)C(C)(C)C(=N)N3)c1 [Example 11, (4aS,7R,8aR)-4a-(2-fluoro-5-methoxyphenyl)-3-imino-2,2,7-trimethyloctahydropyrano[4,3-b][1,4]thiazine 1,1-dioxide] | – | 8.4 µM | 27% |
| COc1ccc(F)c([C@]23CO[C@@H](c4ccc(F)cc4)C[C@H]2S(=O)(=O)C(C)(C)C(=N)N3)c1 [Example 12, (4aS,7R,8aR)-4a-(2-fluoro-5-methoxyphenyl)-7-(4-fluorophenyl)-3-imino-2,2-dimethyloctahydropyrano[4,3-b][1,4]thiazine 1,1-dioxide] | 0.184 µM | 0.0963 µM | – |
| CC1(C)C(=N)N[C@@]2(c3cc(OCC4CC4)ccc3F)CO[C@@H](c3ccc(F)cc3)C[C@H]2S1(=O)=O [Example 13, (4aS,7R,8aR)-4a-(5-(cyclopropylmethoxy)-2-fluorophenyl)-7-(4-fluorophenyl)-3-imino-2,2-dimethyloctahydropyrano[4,3-b][1,4]thiazine 1,1-dioxide] | 0.115 µM | 0.0117 µM | – |
| CC1(C)C(=N)N[C@@]2(c3cc(Oc4ncccc4F)ccc3F)CO[C@@H](c3ccc(F)cc3)C[C@H]2S1(=O)=O [Example 14, (4aS,7R,8aR)-4a-(2-fluoro-5-((3-fluoropyridin-2-yl)oxy)phenyl)-7-(4-fluorophenyl)-3-imino-2,2-dimethyloctahydropyrano[4,3-b][1,4]thiazine 1,1-dioxide] | 0.0039 µM | 0.0019 µM | – |
| CC1(C)C(=N)N[C@@]2(c3cc(Oc4cc(C#N)ccn4)ccc3F)CO[C@@H](c3ccc(F)cc3)C[C@H]2S1(=O)=O [Example 15, 2-(4-fluoro-3-((4aS,7R,8aR)-7-(4-fluorophenyl)-3-imino-2,2-dimethyl-1,1-dioxidooctahydropyrano[4,3-b][1,4]thiazin-4a-yl)phenoxy)isonicotinonitrile] | 0.0179 µM | 0.0198 µM | – |
| COc1ccc(F)c([C@]23CO[C@@H](CO)C[C@H]2S(=O)(=O)C(C)(C)C(=N)N3)c1 [Example 16, (4aS,7R,8aR)-4a-(2-fluoro-5-methoxyphenyl)-7-(hydroxymethyl)-3-imino-2,2-dimethyloctahydropyrano[4,3-b][1,4]thiazine 1,1-dioxide] | 2.86 µM | 2.02 µM | – |
| CC1(C)C[C@@H]2[C@](c3ccccc3F)(CO1)NC(=N)C(C)(C)S2(=O)=O [Example 17, (4aS,8aR)-4a-(2-fluorophenyl)-2,2,7,7-tetramethyltetrahydro-2H,5H-pyrano[4,3-b][1,4]thiazin-3(4H)-imine 1,1-dioxide] | 0.3 µM | 0.293 µM | – |
| CC1(C)C[C@@H]2[C@](c3cc(Oc4ncccc4F)ccc3F)(CO1)NC(=N)C(C)(C)S2(=O)=O [Example 18, (4aS,8aR)-4a-{2-fluoro-5-[(3-fluoropyridin-2-yl)oxy]phenyl}-2,2,7,7-tetramethyltetrahydro-2H,5H-pyrano[4,3-b][1,4]thiazin-3(4H)-imine 1,1-dioxide] | 0.0224 µM | 0.0422 µM | – |
| CC1(C)C[C@@H]2[C@](c3cc(Oc4cc(C#N)ccn4)ccc3F)(CO1)NC(=N)C(C)(C)S2(=O)=O [Example 19] | 0.0338 µM | 0.0652 µM | – |
| CC1(C)C[C@@H]2[C@](c3cc(Oc4ncc(F)cc4F)ccc3F)(CO1)NC(=N)C(C)(C)S2(=O)=O [Example 20, (4aS,8aR)-4a-{5-[(3,5-difluoropyridin-2-yl)oxy]-2-fluorophenyl}-2,2,7,7-tetramethyltetrahydro-2H,5H-pyrano[4,3-b][1,4]thiazin-3(4H)-imine 1,1-dioxide] | 0.0532 µM | 0.102 µM | – |
| CC1(C)C[C@@H]2[C@](c3cc(Oc4cc(F)cnc4F)ccc3F)(CO1)NC(=N)C(C)(C)S2(=O)=O [Example 21, (4aS,8aR)-4a-{5-[(2,5-difluoropyridin-3-yl)oxy]-2-fluorophenyl}-2,2,7,7-tetramethyltetrahydro-2H,5H-pyrano[4,3-b][1,4]thiazin-3(4H)-imine 1,1-dioxide] | 0.0097 µM | 0.088 µM | – |
